Assay results taken from the supplement of paper PMC10307832.

Assays:
Assay in all cases: relative viability (nuclei count vs DMSO), 5 days (fraction); higher = more cells survive
Sulindac + Dasatinib = compound: CC1=C(CC(=O)O)c2cc(F)ccc2/C1=C\c1ccc([S+](C)[O-])cc1 [Sulindac] + Cc1nc(Nc2ncc(C(=O)Nc3c(C)cccc3Cl)s2)cc(N2CCN(CCO)CC2)n1 [Dasatinib] (partner 0.075 µM)
How it was run: (§1)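 Lung cancer cell lines, seeded in 1536-well plates, were treated the following day by pin tool with a single drug or with five library-drug doses (not always all listed) in √10 steps on top of a fixed anchor-drug dose. Cells were fixed and nuclei stained in one step after 5 days, and nuclei were counted. Relative viability is the nuclei count for treated wells divided by that for vehicle wells, reported as medians of duplicate plates.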

[1] = compound: CN[C@@H]1C[C@H]2O[C@@](C)([C@@H]1OC)n1c3ccccc3c3c4c(c5c6ccccc6n2c5c31)C(=O)NC4 [Staurosporine] + Nc1nc2[nH]cc(CCc3ccc(C(=O)N[C@@H](CCC(=O)O)C(=O)O)cc3)c2c(=O)[nH]1 [Pemetrexed] (partner 0.2 µM)
How it was run: as §1

Staurosporine + OSI-027 = compound: CN[C@@H]1C[C@H]2O[C@@](C)([C@@H]1OC)n1c3ccccc3c3c4c(c5c6ccccc6n2c5c31)C(=O)NC4 [Staurosporine] + COc1cccc2cc(-c3nc([C@H]4CC[C@H](C(=O)O)CC4)n4ncnc(N)c34)[nH]c12 [OSI-027] (partner 0.5 µM)
How it was run: as §1

Sulindac + Alpelisib = compound: CC1=C(CC(=O)O)c2cc(F)ccc2/C1=C\c1ccc([S+](C)[O-])cc1 [Sulindac] + Cc1nc(NC(=O)N2CCC[C@H]2C(N)=O)sc1-c1ccnc(C(C)(C)C(F)(F)F)c1 [Alpelisib] (partner 2 µM)
How it was run: as §1

Cell Line	relative viability (Sulindac + Dasatinib; first compound 0.08 µM)	relative viability (Sulindac + Dasatinib; first compound 0.253 µM)	relative viability (Sulindac + Dasatinib; first compound 0.8 µM)	relative viability (Sulindac + Dasatinib; first compound 2.53 µM)	relative viability (Sulindac + Dasatinib; first compound 8 µM)	relative viability ([1]; first compound 0.005 µM)	relative viability ([1]; first compound 0.01581 µM)	relative viability ([1]; first compound 0.05 µM)	relative viability ([1]; first compound 0.1581 µM)	relative viability ([1]; first compound 0.5 µM)	relative viability (Staurosporine + OSI-027; first compound 0.005 µM)	relative viability (Staurosporine + OSI-027; first compound 0.01581 µM)	relative viability (Staurosporine + OSI-027; first compound 0.05 µM)	relative viability (Staurosporine + OSI-027; first compound 0.1581 µM)	relative viability (Staurosporine + OSI-027; first compound 0.5 µM)	relative viability (Sulindac + Alpelisib; first compound 0.08 µM)	relative viability (Sulindac + Alpelisib; first compound 0.253 µM)	relative viability (Sulindac + Alpelisib; first compound 0.8 µM)	relative viability (Sulindac + Alpelisib; first compound 2.53 µM)	relative viability (Sulindac + Alpelisib; first compound 8 µM)
NCI-H322M	0.26	0.244	0.268	0.244	0.275	0.608	0.501	0.451	0.423	0.388	0.619	0.309	0.292	0.294	0.235	0.644	0.777	0.652	0.848	0.928
NCI-H2405	0.22	0.234	0.331	0.218	0.228	0.417	0.174	0.14	0.0988	0.1	0.593	0.182	0.116	0.0974	0.0903	0.725	0.794	0.713	0.796	0.917
HCC-44	–	–	–	–	–	0.629	–	0.583	0.27	0.235	0.358	0.131	0.212	0.174	0.136	0.928	0.987	0.761	0.891	0.821
HCC-78	0.552	0.313	0.345	0.587	0.401	0.978	0.893	0.882	0.927	0.881	0.361	0.37	0.308	0.336	0.296	0.353	0.387	0.352	0.27	0.374
COR-L23	0.478	0.419	0.438	0.489	0.744	0.191	0.151	0.161	0.135	0.0959	0.462	0.381	0.199	0.104	0.0775	0.871	0.867	–	0.714	1.13
NCI-H2009	0.297	0.322	0.305	0.256	0.344	0.895	0.389	0.222	0.156	0.112	0.233	–	0.163	0.123	0.082	1.23	1.18	1.1	1.18	1.27
NCI-H3122	0.79	0.825	0.74	0.705	0.894	0.183	–	0.177	0.167	0.105	1.25	–	0.857	0.155	0.0733	0.639	0.722	0.699	0.756	0.941
NCI-H2228	0.592	0.596	0.375	0.549	0.526	0.288	0.185	0.192	–	0.116	0.689	0.273	0.188	0.0855	0.0902	0.67	0.862	0.725	0.825	0.753
NCI-H1944	0.207	0.202	0.18	0.2	0.269	0.626	0.311	0.26	0.164	0.185	0.322	0.153	0.257	0.166	0.119	0.745	0.883	0.754	0.853	0.856
NCI-H1648	–	–	–	–	–	0.582	0.321	0.344	0.325	0.42	0.245	0.199	0.207	0.293	0.314	–	–	–	–	–
NCI-H358	0.125	0.128	0.191	0.155	0.19	0.165	0.158	0.102	0.102	0.0764	0.809	0.157	0.0851	0.0615	0.0427	1.01	0.878	0.684	0.808	1.1
NCI-H1755	0.52	0.478	0.36	0.442	0.495	0.348	0.321	0.236	0.224	0.223	0.344	0.268	0.209	0.189	0.18	1.17	1.06	0.874	0.935	1
A-427	0.92	0.76	0.547	0.714	0.755	0.633	0.58	0.335	0.209	0.175	0.363	0.158	0.153	–	0.121	1.03	1.08	0.534	1.09	1.11
ABC-1	0.506	0.53	0.434	–	0.673	–	–	–	–	–	0.209	0.14	0.0972	0.0855	0.0778	1.25	1.02	0.811	0.861	1
NCI-H2342	0.276	0.339	0.287	0.303	0.319	0.773	0.746	0.433	0.315	0.319	0.702	0.482	0.438	0.402	0.37	–	–	–	–	–
NCI-H522	0.841	0.962	0.891	0.917	0.908	1.08	0.7	0.847	0.742	0.579	0.814	–	0.606	0.497	0.538	–	–	–	–	–
NCI-H727	0.345	0.333	–	0.394	0.412	–	–	–	–	–	0.422	0.289	0.301	0.291	0.225	0.687	0.537	0.591	0.579	0.771
EBC-1	–	–	–	–	–	–	–	–	–	–	–	–	–	–	–	0.993	0.944	0.848	0.79	0.887
NCI-H1650	0.304	0.353	–	0.321	0.341	0.325	0.239	0.209	0.23	0.104	0.357	0.187	0.142	0.168	–	–	–	–	–	–
IA-LM	–	–	–	–	–	–	–	–	–	–	–	–	–	–	–	0.825	0.955	–	0.977	1.13
